Test results taken from PubChem BioAssay AID248 (DTP/NCI, 2004).
Several values for one entry are separate records, joined by “and”; a condition that tells them apart may be missing. Identical values can stand only once. Toxic doses and inconclusive results are not listed. No stated cut-off is given here; in the data, active means T/C of 150% or more; inactive means T/C below 125%.

Test system: L1210 leukemia ip in BDF1 mice, survival T/C
Test: NCI In Vivo Anticancer Drug Screen. Data for tumor model L1210 Leukemia (intraperitoneal) in B6D2F1 (BDF1) mice
Details: endpoint: mean survival time, higher = longer survival
Method in brief: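 Antitumor effect is assessed in tumor-bearing animals. Survival in the compound arm is compared with a vehicle-dosed control arm and expressed as their quotient.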

[1] = dose: 100.0 mg/kg/injection, schedule: Q04DX002 (ip), vehicle: saline
[2] = dose: 200.0 mg/kg/injection, schedule: Q04DX002 (ip), vehicle: saline
[3] = dose: 1.56 mg/kg/injection, schedule: Q01DX009 (ip), vehicle: saline with Tween-80
[4] = dose: 100.0 mg/kg/injection, schedule: Q01DX001 (ip), vehicle: saline
[5] = dose: 100.0 mg/kg/injection, schedule: Q01DX009 (ip), vehicle: saline
[6] = dose: 200.0 mg/kg/injection, schedule: Q01DX001 (ip), vehicle: saline
[7] = dose: 200.0 mg/kg/injection, schedule: Q01DX009 (ip), vehicle: saline
[8] = dose: 400.0 mg/kg/injection, schedule: Q01DX001 (ip), vehicle: saline
[9] = dose: 400.0 mg/kg/injection, schedule: Q01DX009 (ip), vehicle: saline
[10] = dose: 400.0 mg/kg/injection, schedule: Q04DX002 (ip), vehicle: saline
[11] = dose: 100.0 mg/kg/injection, schedule: Q04DX003 (ip), vehicle: saline with Tween-80
[12] = dose: 200.0 mg/kg/injection, schedule: Q04DX003 (ip), vehicle: saline with Tween-80
[13] = dose: 400.0 mg/kg/injection, schedule: Q04DX003 (ip), vehicle: saline with Tween-80
[14] = dose: 100.0 mg/kg/injection, schedule: Q01DX009 (ip), vehicle: saline with Tween-80
[15] = dose: 100.0 mg/kg/injection, schedule: Q04DX002 (ip), vehicle: Klucel (hydroxypropylcellulose) (HPC)
[16] = dose: 200.0 mg/kg/injection, schedule: Q04DX002 (ip), vehicle: Klucel (hydroxypropylcellulose) (HPC)
[17] = dose: 400.0 mg/kg/injection, schedule: Q04DX002 (ip), vehicle: Klucel (hydroxypropylcellulose) (HPC)

Measured: T/C

Clc1ccc(C2c3ccccc3C[n+]3ccccc32)cc1 (stereo not given)
inactive: dose: 6.25 mg/kg/injection, schedule: Q01DX009 (ip), vehicle: Klucel (hydroxypropylcellulose) (HPC) 102 % of control | dose: 12.5 mg/kg/injection, schedule: Q01DX009 (ip), vehicle: Klucel (hydroxypropylcellulose) (HPC) 104 % of control | dose: 25.0 mg/kg/injection, schedule: Q01DX009 (ip), vehicle: Klucel (hydroxypropylcellulose) (HPC) 109 % of control | dose: 35.0 mg/kg/injection, schedule: Q01DX009 (ip), vehicle: Klucel (hydroxypropylcellulose) (HPC) 112 % of control

Cc1ccnc(/C=N/NC(N)=S)c1
inactive: [1] 108 % of control | [2] 86 % of control

CCCCCCCCCCCCOP(=S)(S)OCCCCCCCCCCCC.[Cd]
inactive: [3] 102 % of control | dose: 3.13 mg/kg/injection, schedule: Q01DX009 (ip), vehicle: saline with Tween-80 97 % of control | dose: 6.25 mg/kg/injection, schedule: Q01DX009 (ip), vehicle: saline with Tween-80 96 % of control | dose: 50.0 mg/kg/injection, schedule: Q04DX002 (ip), vehicle: saline with Tween-80 94 % of control | dose: 100.0 mg/kg/injection, schedule: Q04DX002 (ip), vehicle: saline with Tween-80 86 % of control and 91 % of control

CCCOCNC(=O)c1cccnc1
inactive: [4] 103 % of control | [5] 97 % of control | [6] 95 % of control | [7] 94 % of control | [8] 105 % of control | [9] 103 % of control

CC(C)(C)N
inactive: [1] 101 % of control | [2] 101 % of control | [10] 97 % of control

O=C1CCC2=C(CCCCCCCCCC2)N1c1ccccc1
inactive: [11] 105 % of control | [12] 105 % of control | [13] 94 % of control

CN(C)c1n[nH]c(=O)[nH]c1=O
inactive: [4] 91 % of control | [6] 114 % of control | [8] 93 % of control

O=C1OCCC1n1ccc(=O)[nH]c1=O (stereo not given)
inactive: [5] 111 % of control | [7] 105 % of control | [9] 106 % of control

C=CCOC(=O)CCOCC
inactive: dose: 55.0 mg/kg/injection, schedule: Q01DX Z (ip), vehicle: methylcellulose (MC) 90 % of control | dose: 83.0 mg/kg/injection, schedule: Q01DX Z (ip), vehicle: methylcellulose (MC) 94 % of control | dose: 125.0 mg/kg/injection, schedule: Q01DX Z (ip), vehicle: methylcellulose (MC) 90 % of control

COc1ccc(C2=NC(=O)C(C(=O)c3ccccc3)O2)cc1 (stereo not given)
inactive: [4] 94 % of control | [6] 96 % of control | [8] 96 % of control

NC(=O)CCNCCSC(=O)c1ccccc1
inactive: [11] 102 % of control | [12] 100 % of control | [13] 96 % of control

O=C(c1ccccc1)C(SC(=S)OCc1ccccc1)c1ccccc1 (stereo not given)
inactive: dose: 25.0 mg/kg/injection, schedule: Q01DX009 (ip), vehicle: saline with Tween-80 98 % of control | dose: 50.0 mg/kg/injection, schedule: Q01DX009 (ip), vehicle: saline with Tween-80 100 % of control | [14] 96 % of control

CC(=O)Nc1cccc(N=Cc2ccc(N(CCOS(C)(=O)=O)CCOS(C)(=O)=O)cc2C)c1
inactive: dose: 8.0 mg/kg/injection, schedule: Q01DX009 (ip), vehicle: saline with Tween-80 120 % of control

CNC(C)COc1ccccc1 (stereo not given)
inactive: dose: 25.0 mg/kg/injection, schedule: Q01DX009 (ip), vehicle: saline 101 % of control | dose: 25.0 mg/kg/injection, schedule: Q04DX003 (ip), vehicle: saline with Tween-80 94 % of control | dose: 50.0 mg/kg/injection, schedule: Q01DX009 (ip), vehicle: saline 98 % of control | dose: 50.0 mg/kg/injection, schedule: Q04DX003 (ip), vehicle: saline with Tween-80 91 % of control | [11] 95 % of control

C=NCC#N
inactive: [14] 91 % of control | dose: 200.0 mg/kg/injection, schedule: Q01DX009 (ip), vehicle: saline with Tween-80 91 % of control | dose: 400.0 mg/kg/injection, schedule: Q01DX009 (ip), vehicle: saline with Tween-80 93 % of control

NCCc1ccc(O)c(CO)c1
inactive: [1] 105 % of control | [2] 86 % of control | [10] 105 % of control

C=CCCCCCCCCC(=O)N/N=C(/C)c1ccc(C)cc1
inactive: [15] 103 % of control | [16] 118 % of control | [17] 92 % of control

Oc1ccc(-c2nc3ccccc3nc2-c2ccc(O)cc2O)c(O)c1
inactive: [4] 96 % of control | [6] 93 % of control | [8] 96 % of control

Cc1ccnc2c3c4c(cc12)c(C)cc(=O)n4CO3
inactive: dose: 75.0 mg/kg/injection, schedule: Q01DX001 (ip), vehicle: Klucel (hydroxypropylcellulose) (HPC) 104 % of control | dose: 150.0 mg/kg/injection, schedule: Q01DX001 (ip), vehicle: Klucel (hydroxypropylcellulose) (HPC) 95 % of control | dose: 150.0 mg/kg/injection, schedule: Q01DX009 (ip), vehicle: Klucel (hydroxypropylcellulose) (HPC) 114 % of control | dose: 300.0 mg/kg/injection, schedule: Q01DX001 (ip), vehicle: Klucel (hydroxypropylcellulose) (HPC) 98 % of control

C[CH2][Sn]([CH2]C)([CH2]C)[O]c1ccccc1
inactive: [3] 97 % of control | dose: 3.12 mg/kg/injection, schedule: Q01DX009 (ip), vehicle: saline with Tween-80 108 % of control

O=[N+]([O-])c1cccn2nc(-c3ccccc3)nc12
inactive: dose: 100.0 mg/kg/injection, schedule: Q01DX001 (ip), vehicle: acetone 98 % of control | dose: 200.0 mg/kg/injection, schedule: Q01DX001 (ip), vehicle: acetone 98 % of control | dose: 400.0 mg/kg/injection, schedule: Q01DX001 (ip), vehicle: acetone 101 % of control

Cc1ccc(CNC(=O)NC(C)(C)C)cc1C
inactive: [15] 103 % of control | [16] 111 % of control | [17] 100 % of control

CCC(C)(C(=O)O)C(=O)O
inactive: [4] 103 % of control

Cc1cc(NC(=O)NCc2ccc([N+](=O)[O-])cc2)ccc1S(=O)(=O)F
inactive: [11] 100 % of control | [12] 95 % of control | [13] 92 % of control
